# Source: US12685320B2, “Food processing oxidation treatment forumlations and methods” (Clean Chemistry, Inc., priority 2023, dated 2026)
# Columns and labels:
# Salmonella spp. = test: Poultry chiller tank (pre-chiller and red water main chiller): Salmonella on inoculated poultry thighs; type: cell-based, S. Infantis, S. Typhimurium, S. Enteritidis; details: for Recovered average Log10 CFU/g: pH>8.5
# Protocol: (§1) A standardized test was conducted to compare the antimicrobial efficacy, residual decay, and effect on solution pH of peracetate and peracetic acid in reducing Salmonella spp. on poultry as a processing method directed to control microbial growth or inactivate microorganisms in food products during processing to lower risk of foodborne pathogens or spoilage microorganisms. The objective of this study was to determine the efficacy of peracetate and peracetic acid treatments for reducing Salmonella spp. on poultry thighs in a treatment bath under conditions simulating pre-chiller and red water main chiller applications. To mimic these applications in a poultry processing facility, target concentrations were determined to be 150 ppm of either peracetate (as PAA equivalents) or peracetic acid in the simulated pre-chiller application and 75 ppm of either peracetate (as PAA equivalents) or peracetic acid in the simulated red water main chiller application. Both applications targeted a pH>8.5 to simulate the intentional alkalinity of chillers in poultry processing facilities.
# (§2) The pH, temperature, and residual antimicrobial concentration (measured as either peracetate or peracetic acid) were monitored through the duration of both applications. […]
# The inoculum used in this study was prepared from three reference strains of Salmonella: S. Infantis (Reference Strain ID: ATCC 51741), S. Typhimurium (Reference Strain ID: ATCC 13311), and S. Enteritidis (Reference Strain ID: ATCC 13076). […] Colonies from each strain were placed into individual tubes of buffered peptone water (BPW) determined using a spectrophotometer (ThermoFisher Scientific, 1700/0512). […] Post incubation, colonies were counted, and log transformed reported. […]
# Prior to inoculation, the average weight of the poultry thighs used in this study was determined to be 150 grams. […]
# [1] = Poultry chiller tank: residual decay and odor of antimicrobial baths; type: physicochemical
# Protocol: as §1, with “Both applications targeted a pH>8.5 to simulate the intentional alkalinity of chillers in poultry processing facilities.” left out
# as §2
# During the pre-chiller and main chiller treatments, the temperature, pH, and antimicrobial concentrations were monitored and recorded every 10 minutes. […] After incubating, colonies were counted, and log transformed.
compound,measurement,setting,value
CC(=O)OO [peracetic acid],Recovered average Log10 CFU/g,"Salmonella spp.; main chiller treatment (after pre-chiller), target 75 ppm, untreated main chiller control 4.13",3.45 Log10 CFU/g
same,difference in antimicrobial effectiveness of peracetic acid and peracetate,Salmonella spp.; pre-chiller and main chiller,No significant difference
same,Recovered average Log10 CFU/g,"Salmonella spp.; pre-chiller treatment, target 150 ppm, untreated 5.46, untreated pre-chiller control 4.76",3.65 Log10 CFU/g
same,additional antimicrobial required to maintain minimum concentration,[1]; pre-chiller application,13.0 mL
same,additional antimicrobial required to maintain minimum concentration,[1]; red water main chiller application,26.0 mL
